Measurements reported in paper PMC6271906, “Sesquiterpenes from the Brazilian Red Alga Laurencia dendroidea J. Agardh” (Molecules, 2014).

What was measured:
[1] = system: NO production by LPS-activated RAW 264.7 macrophages; experiment: NO production by LPS-stimulated RAW 264.7 macrophages (Griess test); format: cell-based, murine; details: Mus musculus, RAW264.7; for IC50: LPS-stimulated RAW 264.7 macrophages, 24 h incubation
Description: (§1) The murine peritoneal macrophage cell line RAW 264.7 was obtained from the American Type Culture Collection (ATCC, Rockville, MD, USA) and grown at 37 °C and 5% CO2 in DMEM F-12 that was supplemented with 10% FCS and gentamicin (50 µg/mL). RAW 264.7 cells (1 × 10^5 cells/well) were seeded in flat bottom 96-well tissue culture plates (Corning Inc., Corning, NY, USA) in the presence or absence of various concentrations of the samples (100, 20 and 4 µg/mL) and/or LPS (Escherichia coli 055:B5; Sigma-Aldrich). After a 24 h incubation period, culture supernatants were collected for NO and TNF-α assays. Nitrite, a stable NO metabolite, was determined by using the Griess test. As a positive control of inhibitory activity, intact, untreated macrophages were used. As a negative control, macrophages stimulated with 1 µg/mL LPS were used. […] TNF-α was measured by an L929 fibroblast bioassay. This assay system uses murine L929 cells sensitive to TNF-α. For this, murine fibroblast cell line L929 cells (ATCC) (2 × 10^5 cells/well) were seeded in flat bottom 96-well tissue culture plates (Corning Inc.) 24 h before of being inoculated with macrophage culture supernatant and actinomycin D (2 µg/mL) added. After 24 h of incubation with macrophage culture supernatant, L929 viability was assayed by MTT [3-(4,5-dimethylthiazol-2-yl)-2,5diphenyltetrazolium bromide] method. The cytokine levels were calculated by using a purified recombinant mouse cytokine to obtain a standard curve that correlates cellular viability and TNF-α concentration.

[2] = system: TNF-α production by LPS-activated RAW 264.7 macrophages; experiment: TNF-α production by LPS-stimulated RAW 264.7 macrophages (L929 fibroblast bioassay); format: cell-based, murine; details: Mus musculus, RAW264.7, 24 h incubation
Description: as §1

[3] = system: Mycobacterium bovis BCG strain Moreau; experiment: microbe, parasite or virus in culture; format: cell-based; details: Mycobacterium tuberculosis variant bovis BCG, 168 h, read-out: IC50 M. bovis BCG
[4] = Lactate dehydrogenase (LDH) cytotoxicity assay; format: cell-based, murine; details: mouse, RAW 264.7 macrophage cells; LDH release from RAW 264.7 cells, 24 h after treatment
Description: (§2) LDH assay was used to evaluate the toxicity of the studied samples towards macrophage cultures. The release of LDH (cytoplasmic enzyme lactate dehydrogenase) from RAW 264.7 cells treated with samples was determined using 50 µL of cell culture supernatant collected 24 h after the treatment, as described in the previous section. The LDH release, which represents an indirect indication of cytotoxicity, was determined colorimetrically using a commercial kit (Doles Reagentes e Equipamentos para Laboratorios Ltda., Goiânia, Brazil). The specific release was calculated as a percentage of the controls: non-treated macrophages as the negative control (O.D. 0.249, cytotoxicity 1.99% ± 0.62%) and 1% Triton X-100 (Vetec Chem., Duque de Caxias, Brazil) detergent treated macrophages as the positive control (O.D. 1.278, cytotoxicity 99.95% ± 2.26%). Final concentrations of DMSO, used as the carrier solvent for the samples, were tested in parallel as a control. Cytotoxicity was shown as percentage of controls. Tests were performed in triplicate and the mean value and standard deviation were calculated.

RAW 264.7 cells = experiment: Lactate dehydrogenase (LDH) cytotoxicity assay; format: cell-based, murine; details: for toxicity (LDH release), in words: RAW 264.7 cells, cell viability by LDH release
Description: as §2

With [H]/N=C(/NC)NCCC[C@H](N)C(=O)O [L-NMMA, L-N-monomethyl-arginine, reference compound] the IC50 [1] was 71.3 ± 4.4 µM and the inhibition at 20 µg/mL ([1]; positive control at 20 µg/mL) was 59.2%.

Work on CC1CCC23C1CCC2(C)CC(C)C3(C)O (stereo not drawn) [Compound 5, (1S*,2S*,3S*,5S*,8S*,9S*)-2,3,5,9-tetramethyltricyclo[6.3.0.01.5]undecan-2-ol] yielded an IC50 [1] of 74.6 ± 5.8 µM, an IC50 [2] of 393.4 ± 0.4 µM and an IC50 [3] of 205 ± 7.6 µM. For the same compound, the IC50 at 24 h [4] was 416 ± 4.9 µM and the “toxicity (LDH release), in words” value (RAW 264.7 cells) was “no toxicity whatsoever”.

For Triton X-100 [reference compound], the “cytotoxicity (specific LDH release, percentage of controls)” value (RAW 264.7 cells; 1% detergent, positive control, RAW 264.7 macrophages) was 99.95% ± 2.26.

In the case of C=C1C[C@@H](O)CC(C)(C)[C@]12CCC(C)=C(Cl)C2 [Compound 3, Debromoelatol], the IC50 [1] is reported as 69.1 ± 4.7 µM, the IC50 [2] is reported as 134 ± 7.4 µM and the IC50 [3] is reported as 82.4 ± 4.7 µM. For the same compound, the IC50 at 24 h [4] was greater than 392 µM and the “toxicity (LDH release), in words” value (RAW 264.7 cells) was “no toxicity whatsoever”.

For C=C1CC[C@@H](Br)C(C)(C)[C@]12CC[C@](C)(Br)[C@@H](Cl)C2 [Compound 4, obtusane], the IC50 [1] was 44.9 ± 3 µM, the IC50 [2] was greater than 251 µM and the IC50 [3] was 44.7 ± 4 µM. The IC50 at 24 h [4] was 197.2 ± 1 µM and the “toxicity (LDH release), in words” value (RAW 264.7 cells) was “only moderately toxic”.

C=C1CC(O)C(Br)C(C)(C)C12CCC(C)(O)C(Cl)C2 (centres unmarked) [Compound 2] showed an IC50 [1] greater than 284 µM, an IC50 [2] greater than 284 µM and an IC50 [3] of 80.2 ± 4.3 µM. The IC50 at 24 h [4] was greater than 284 µM and the “toxicity (LDH release), in words” value (RAW 264.7 cells) was “no toxicity whatsoever”.
